From US20170305861A1, “HETEROARYL COMPOUNDS COMPRISING NITROGEN AND USE THEREOF” (ImmunoMet Therapeutics, Inc, priority 2016, published 2017)
Where two headings read alike, the source gives them in different places.

Assays:
[1] = test system: A549 cell lines (lung cancer cell lines); assay: Oxygen Consumption Rate (OCR) of cells, corrected for cell viability (Cyquant); format: cell-based; conditions: Homo sapiens; A549 cells, 24 h drug treatment, OCR value reflecting cell viability; read-out: OCR IC50
Protocol: The compounds synthesized by the methods disclosed in the Examples of the present invention have been measured on oxygen consumption rate and extracellular oxidation by the methods disclosed in the Test Examples below.
3×10^3 cells from A549 cell lines (purchased from ATCC-American Type Culture Collection), which are lung cancer cell lines, were placed on XF96 cell culture plates using RPMI1640 medium, and cultured at 37° C. in a 5% CO2 condition for 16 hours or more for attachment.
After 16 hours, the cells were treated with the drug at six different concentrations between 0 μM and 20 μM. After 24 hours, the existing medium was removed, and XF assay medium (15 mM D-Glucose, 15 mM sodium pyruvate, 4 mM L-Glutamine, pH 7.4) was added. The cells were retreated with the drug, and additionally cultured in Prep station at 37° C. in a non-CO2 condition for 1 hour. During the one-hour culture in the Prep station, a sensor cartridge was placed and calibrated for 20 minutes, and a plate with cells was placed to analyze the OCR. After the analysis was completed, XF96 plate was measured for cell viability using Cyquant assay, which measures the amount of intracellular DNA, in the following method. XF assay medium and the drug were removed, and the cells were placed in a cryogenic refrigerator (−80° C.) for at least 4 hours to be frozen. After the plate was made to be at room temperature, a solution where a lysis buffer and fluorescent GR dye were mixed was placed by 200 μL per well. After 20-minute reaction at room temperature, […] was measured between […] to calculate cell viability. A measured value of a well untreated with the drug was converted to 100% by reflecting cell viability to the OCR value. Concentration of a drug which inhibits the OCR value reflecting cell viability by 50% was calculated.

SK-MEL-28 cells = assay: Inhibitory effect of cancer cell proliferation, MTT; format: cell-based; conditions: Homo sapiens, SK-MEL-28, 72 hours, MTT
Protocol: The compounds prepared in the above Examples were evaluated for the inhibitory effect of cancer cell proliferation according to the method described in the following Test Example.
SK-MEL-28 cells derived from human melanoma were used, and the concentration (cell growth inhibitory concentration, IC50) at which cell growth was inhibited to 50% was measured using MTT reagent (3-(4,5-dimethylthiazole-2-yl)-2,5-[…] bromide) to confirm the inhibitory effect of cancer cell proliferation of the drugs synthesized in Examples 1 to 84.
First, SK-MEL-28 cells were cultured in 96-well plates at a cell number of about 1,250 in RPMI-1640 medium containing 11.1 mM glucose and 10% calf blood serum or 0.75 mM glucose and 10% calf blood serum, and were cultured for 16 hours. […] After treatment of the compound, MTT was added to the culture medium to confirm living cells and further cultured for 2 hours. The resulting formazane crystal was dissolved using dimethyl sulfoxide, and the absorbance of the solution was measured at 555 nm. After culturing for 72 hours, the number of viable cells in the well plate treated with the compounds synthesized in the Examples relative to the number of cells cultured in the well plate without treatment of the compounds was expressed as cell viability (%) according to each treatment concentration. By using this, a cell viability curve graph was prepared, and the inhibitory effect of cancer cell proliferation was confirmed by calculating the concentration of the compound whose growth was inhibited to 50% (IC50).

[2] = test system: RENCA mouse kidney cancer cells; assay: Antitumor effect in mouse kidney cancer cells, subcutaneous RENCA implant in BALB/c mice; format: in vivo; conditions: for volume of tumor: 10 mg/kg intraperitoneally once a day, BALB/c mice
Protocol: RENCA, which are mouse kidney cancer cells, were cultured in RPMI 1640 medium containing 10% FBS and 1% anti-anti at 37° C. and 5% CO2. 8- to 10-week-old BALB/c mice with a body weight range of 18 g to 20 g were subjected to a 7-day acclimation period, and then 1×10^6/0.1 mL of RENCA cells in PBS were subcutaneously implanted on the right side of the backs of the mice. Seven days after implantation, group separation was performed based on the average of tumor volumes when the tumor volumes reached […]. A vehicle control group was intraperitoneally injected with PBS containing 2% DMSO and 2% Tween80, and an Example 62 administration group was intraperitoneally injected at a dose of 10 mg/kg, once a day for 2 weeks. Tumor volume measurements were performed twice weekly using Vemier calipers, and the volume of tumor was calculated by substituting long axis and short axis for 0.5×long axis×short axis^2.

[3] = 0.75 mM glucose, read-out: SK-MEL-28 0.75 mM glucose Cell viability (IC50 μM)
[4] = 11.1 mM glucose, read-out: SK-MEL-28 11.1 mM glucose Cell viability (IC50 μM)

SMILES	IC50 [1] [µM]	IC50 (SK-MEL-28 cells; [3]) [µM]	IC50 (SK-MEL-28 cells; [4]) [µM]	volume of tumor ([2]; day 7 post tumor implantation (group separation)) [mm³]	volume of tumor ([2]; day 9 post tumor implantation) [mm³]	volume of tumor ([2]; day 12 post tumor implantation) [mm³]	volume of tumor ([2]; day 14 post tumor implantation) [mm³]	volume of tumor ([2]; day 16 post tumor implantation) [mm³]	volume of tumor ([2]; day 20 post tumor implantation) [mm³]	tumor growth compared with the vehicle control group ([2]; from the 6th day of administration, 10 mg/kg intraperitoneally once a day for 2 weeks)
Br.c1cc(C[n+]2ccc(N3CCCC3)cc2)cs1 [Example 62, 4-(Pyrrolidin-1-yl)-1-(thiophen-3-ylmethyl)pyridinium bromide]	1	3.1	40.1	81 ± 7	146 ± 17	227 ± 39	364 ± 68	545 ± 132	775 ± 206	remarkably inhibited tumor growth
Cc1ccc(C[n+]2ccc(N3CCCC3)cc2)s1 [Example 79, 1-((5-Methylthiophen-2-yl)methyl)-4-(pyrrolidin-1-yl)pyridinium chloride]	0.8	1.16	30.7							
Nc1cc(N2CCC2)cc[n+]1Cc1ccsc1 [Example 81]	2.1	4.15	58.4							
